Laboratory results published in ChEMBL document CHEMBL5696442, “Discovery of type II inhibitors of TGFβ-activated kinase 1 (TAK1) and mitogen-activated protein kinase kinase kinase kinase 2 (MAP4K2)” (J Med Chem, 2015).
Active and inactive are the calls of the source. The calls are words filed in the database; no cut-off is given here.

How the values were obtained:
[1] = molecular target: Cyclin-dependent kinase 5 (Homo sapiens) (UniProt Q00535); assay: Inhibition of CDK5 K2 labeling site harbouring DLKPQNLLINR in human Huh-7 cells at 1 uM by KiNativ Profiling analysis relative to control; type: cell-based
[2] = molecular target: Serine/threonine-protein kinase 38 (Homo sapiens) (UniProt Q15208); assay: Inhibition of NDR1 K1 labeling site in human Huh-7 cells at 1 uM by KiNativ Profiling analysis relative to control; type: cell-based
[3] = molecular target: Interferon-induced, double-stranded RNA-activated protein kinase (Homo sapiens) (UniProt P19525); assay: Inhibition of PRKR (unknown origin) at 10 uM by Ambit Kinomescan binding assay
[4] = molecular target: T1, Phosphatidylinositol 5-phosphate 4-kinase type-2 alpha (Homo sapiens) (UniProt P48426); assay: Inhibition of PIP5K2A LIP labeling site in human Huh-7 cells at 1 uM by KiNativ Profiling analysis relative to control; type: cell-based
T1 sequence (whole entry): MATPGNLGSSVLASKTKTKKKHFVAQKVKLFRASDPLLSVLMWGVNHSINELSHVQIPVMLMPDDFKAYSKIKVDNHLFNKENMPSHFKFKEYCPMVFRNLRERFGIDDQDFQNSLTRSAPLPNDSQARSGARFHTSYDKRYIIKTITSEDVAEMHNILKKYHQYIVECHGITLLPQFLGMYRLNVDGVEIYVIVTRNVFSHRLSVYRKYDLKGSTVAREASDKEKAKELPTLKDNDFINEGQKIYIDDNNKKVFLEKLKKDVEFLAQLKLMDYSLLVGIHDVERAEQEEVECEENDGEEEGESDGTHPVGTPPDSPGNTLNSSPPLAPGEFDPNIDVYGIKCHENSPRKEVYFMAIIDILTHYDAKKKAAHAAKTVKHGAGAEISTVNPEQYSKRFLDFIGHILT

[5] = molecular target: RPS6KA1/RPS6KA2/RPS6KA3 (Homo sapiens) (UniProt P51812+Q15349+Q15418); assay: Inhibition of RSK1/2/3 Domain 1 K2 labeling site harbouring DLKPENILLDEEGHIK in human Huh-7 cells at 10 uM by KiNativ Profiling analysis relative to control; type: cell-based
[6] = molecular target: Misshapen-like kinase 1 (Homo sapiens) (UniProt Q8N4C8); assay: Inhibition of ZC3/MINK K2 labeling site in human Huh-7 cells at 10 uM by KiNativ Profiling analysis relative to control; type: cell-based
[7] = molecular target: Tyrosine-protein kinase CSK (Homo sapiens, UniProt P41240); assay: Inhibition of CSK ACT labeling site harbouring VSDFGLTKEASSTQDTGK in human A-375 cells at 5 uM by KiNativ Profiling analysis relative to control; type: cell-based
[8] = molecular target: T2, Mitogen-activated protein kinase kinase kinase 6 (Homo sapiens) (UniProt O95382); assay: Inhibition of MAP3K6 Lys1 labeling site harbouring IAIKEIPER in human A-375 cells at 0.05 uM by KiNativ Profiling analysis relative to control; type: cell-based
T2 sequence (whole entry): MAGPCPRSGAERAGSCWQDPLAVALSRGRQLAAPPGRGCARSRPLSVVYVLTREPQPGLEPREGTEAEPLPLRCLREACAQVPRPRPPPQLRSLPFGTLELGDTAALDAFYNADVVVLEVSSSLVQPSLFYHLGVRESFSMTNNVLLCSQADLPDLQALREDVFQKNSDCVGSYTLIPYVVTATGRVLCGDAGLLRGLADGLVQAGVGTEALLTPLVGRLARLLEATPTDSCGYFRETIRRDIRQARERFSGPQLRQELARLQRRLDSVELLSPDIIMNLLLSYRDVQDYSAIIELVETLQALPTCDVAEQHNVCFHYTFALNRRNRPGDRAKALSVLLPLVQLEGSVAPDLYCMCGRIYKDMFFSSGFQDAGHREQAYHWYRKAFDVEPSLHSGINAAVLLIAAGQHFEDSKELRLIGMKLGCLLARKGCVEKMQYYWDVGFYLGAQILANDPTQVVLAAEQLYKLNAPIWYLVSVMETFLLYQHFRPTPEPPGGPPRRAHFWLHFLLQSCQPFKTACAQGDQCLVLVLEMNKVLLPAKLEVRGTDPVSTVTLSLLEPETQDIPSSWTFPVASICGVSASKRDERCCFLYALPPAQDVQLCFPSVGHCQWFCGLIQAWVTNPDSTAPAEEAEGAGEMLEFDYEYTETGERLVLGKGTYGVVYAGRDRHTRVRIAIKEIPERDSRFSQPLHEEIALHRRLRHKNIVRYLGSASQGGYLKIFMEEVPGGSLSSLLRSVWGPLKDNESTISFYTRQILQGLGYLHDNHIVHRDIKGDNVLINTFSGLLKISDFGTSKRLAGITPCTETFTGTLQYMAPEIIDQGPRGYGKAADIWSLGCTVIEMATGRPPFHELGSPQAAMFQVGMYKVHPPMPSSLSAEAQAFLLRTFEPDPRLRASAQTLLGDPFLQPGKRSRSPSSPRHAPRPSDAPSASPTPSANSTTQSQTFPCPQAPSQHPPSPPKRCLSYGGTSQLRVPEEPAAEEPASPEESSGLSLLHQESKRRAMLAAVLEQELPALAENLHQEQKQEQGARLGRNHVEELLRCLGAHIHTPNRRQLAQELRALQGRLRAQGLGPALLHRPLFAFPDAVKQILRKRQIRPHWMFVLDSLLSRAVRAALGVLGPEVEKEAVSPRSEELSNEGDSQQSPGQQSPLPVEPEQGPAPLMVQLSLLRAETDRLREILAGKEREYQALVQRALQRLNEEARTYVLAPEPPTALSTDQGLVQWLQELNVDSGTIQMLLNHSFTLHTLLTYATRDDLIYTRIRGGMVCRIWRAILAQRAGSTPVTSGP

[9] = molecular target: Serine/threonine-protein kinase N1 (Homo sapiens) (UniProt Q16512); assay: Inhibition of PKN1 (unknown origin) at 10 uM by Ambit Kinomescan binding assay
[10] = molecular target: Phosphatidylinositol 4-kinase alpha (Homo sapiens) (UniProt P42356); assay: Inhibition of PI4KA ATP labeling site in human Huh-7 cell lysate at 1 uM by KiNativ Profiling analysis relative to control; type: subcellular
[11] = molecular target: Serine/threonine-protein kinase PLK1 (Homo sapiens) (UniProt P53350); assay: Inhibition of PLK1 Lys2 labeling site harbouring DLKLGNLFLNEDLEVK in human Huh-7 cell lysate at 1 uM by KiNativ Profiling analysis relative to control; type: subcellular
[12] = molecular target: Mitogen-activated protein kinase kinase kinase 12 (Homo sapiens) (UniProt Q12852); assay: Inhibition of DLK Lys2 labeling site harbouring in human A-375 cells at 0.05 uM by KiNativ Profiling analysis relative to control
[13] = molecular target: 5'-AMP-activated protein kinase catalytic subunit alpha-2 (Homo sapiens) (UniProt P54646); assay: Inhibition of AMPK-alpha2 (unknown origin) at 1 uM by Ambit Kinomescan binding assay relative to control
[14] = molecular target: Serine/threonine-protein kinase 32C (Homo sapiens) (UniProt Q86UX6); assay: Inhibition of YANK3 Lys2 labeling site in human A-375 cells at 0.05 uM by KiNativ Profiling analysis relative to control; type: cell-based

5'-AMP-activated protein kinase catalytic subunit alpha-2 (Homo sapiens), sequence (P54646 whole entry, looked up): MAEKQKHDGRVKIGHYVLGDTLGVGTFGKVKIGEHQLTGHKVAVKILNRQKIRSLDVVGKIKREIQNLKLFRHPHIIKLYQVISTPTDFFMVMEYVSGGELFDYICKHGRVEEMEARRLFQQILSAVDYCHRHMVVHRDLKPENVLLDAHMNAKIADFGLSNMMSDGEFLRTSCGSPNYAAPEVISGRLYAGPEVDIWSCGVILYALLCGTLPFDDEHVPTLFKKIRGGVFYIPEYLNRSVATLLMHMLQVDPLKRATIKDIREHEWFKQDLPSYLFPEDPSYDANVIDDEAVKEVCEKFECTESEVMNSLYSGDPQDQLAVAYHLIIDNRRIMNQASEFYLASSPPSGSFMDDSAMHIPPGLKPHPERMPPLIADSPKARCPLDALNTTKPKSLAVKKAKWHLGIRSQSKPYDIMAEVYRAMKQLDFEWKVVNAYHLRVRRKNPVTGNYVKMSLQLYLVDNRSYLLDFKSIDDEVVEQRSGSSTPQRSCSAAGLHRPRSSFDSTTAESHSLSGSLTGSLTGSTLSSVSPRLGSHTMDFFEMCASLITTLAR
Cyclin-dependent kinase 5 (Homo sapiens), sequence (Q00535 whole entry, looked up): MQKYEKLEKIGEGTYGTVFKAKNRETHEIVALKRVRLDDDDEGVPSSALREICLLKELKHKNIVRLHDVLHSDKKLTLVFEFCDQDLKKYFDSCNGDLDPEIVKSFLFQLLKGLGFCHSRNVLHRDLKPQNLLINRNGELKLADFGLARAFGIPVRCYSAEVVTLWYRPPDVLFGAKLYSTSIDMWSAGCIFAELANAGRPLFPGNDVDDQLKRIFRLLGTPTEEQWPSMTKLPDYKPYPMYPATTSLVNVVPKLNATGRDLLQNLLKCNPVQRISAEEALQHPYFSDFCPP
Phosphatidylinositol 4-kinase alpha (Homo sapiens), sequence (P42356 whole entry, looked up): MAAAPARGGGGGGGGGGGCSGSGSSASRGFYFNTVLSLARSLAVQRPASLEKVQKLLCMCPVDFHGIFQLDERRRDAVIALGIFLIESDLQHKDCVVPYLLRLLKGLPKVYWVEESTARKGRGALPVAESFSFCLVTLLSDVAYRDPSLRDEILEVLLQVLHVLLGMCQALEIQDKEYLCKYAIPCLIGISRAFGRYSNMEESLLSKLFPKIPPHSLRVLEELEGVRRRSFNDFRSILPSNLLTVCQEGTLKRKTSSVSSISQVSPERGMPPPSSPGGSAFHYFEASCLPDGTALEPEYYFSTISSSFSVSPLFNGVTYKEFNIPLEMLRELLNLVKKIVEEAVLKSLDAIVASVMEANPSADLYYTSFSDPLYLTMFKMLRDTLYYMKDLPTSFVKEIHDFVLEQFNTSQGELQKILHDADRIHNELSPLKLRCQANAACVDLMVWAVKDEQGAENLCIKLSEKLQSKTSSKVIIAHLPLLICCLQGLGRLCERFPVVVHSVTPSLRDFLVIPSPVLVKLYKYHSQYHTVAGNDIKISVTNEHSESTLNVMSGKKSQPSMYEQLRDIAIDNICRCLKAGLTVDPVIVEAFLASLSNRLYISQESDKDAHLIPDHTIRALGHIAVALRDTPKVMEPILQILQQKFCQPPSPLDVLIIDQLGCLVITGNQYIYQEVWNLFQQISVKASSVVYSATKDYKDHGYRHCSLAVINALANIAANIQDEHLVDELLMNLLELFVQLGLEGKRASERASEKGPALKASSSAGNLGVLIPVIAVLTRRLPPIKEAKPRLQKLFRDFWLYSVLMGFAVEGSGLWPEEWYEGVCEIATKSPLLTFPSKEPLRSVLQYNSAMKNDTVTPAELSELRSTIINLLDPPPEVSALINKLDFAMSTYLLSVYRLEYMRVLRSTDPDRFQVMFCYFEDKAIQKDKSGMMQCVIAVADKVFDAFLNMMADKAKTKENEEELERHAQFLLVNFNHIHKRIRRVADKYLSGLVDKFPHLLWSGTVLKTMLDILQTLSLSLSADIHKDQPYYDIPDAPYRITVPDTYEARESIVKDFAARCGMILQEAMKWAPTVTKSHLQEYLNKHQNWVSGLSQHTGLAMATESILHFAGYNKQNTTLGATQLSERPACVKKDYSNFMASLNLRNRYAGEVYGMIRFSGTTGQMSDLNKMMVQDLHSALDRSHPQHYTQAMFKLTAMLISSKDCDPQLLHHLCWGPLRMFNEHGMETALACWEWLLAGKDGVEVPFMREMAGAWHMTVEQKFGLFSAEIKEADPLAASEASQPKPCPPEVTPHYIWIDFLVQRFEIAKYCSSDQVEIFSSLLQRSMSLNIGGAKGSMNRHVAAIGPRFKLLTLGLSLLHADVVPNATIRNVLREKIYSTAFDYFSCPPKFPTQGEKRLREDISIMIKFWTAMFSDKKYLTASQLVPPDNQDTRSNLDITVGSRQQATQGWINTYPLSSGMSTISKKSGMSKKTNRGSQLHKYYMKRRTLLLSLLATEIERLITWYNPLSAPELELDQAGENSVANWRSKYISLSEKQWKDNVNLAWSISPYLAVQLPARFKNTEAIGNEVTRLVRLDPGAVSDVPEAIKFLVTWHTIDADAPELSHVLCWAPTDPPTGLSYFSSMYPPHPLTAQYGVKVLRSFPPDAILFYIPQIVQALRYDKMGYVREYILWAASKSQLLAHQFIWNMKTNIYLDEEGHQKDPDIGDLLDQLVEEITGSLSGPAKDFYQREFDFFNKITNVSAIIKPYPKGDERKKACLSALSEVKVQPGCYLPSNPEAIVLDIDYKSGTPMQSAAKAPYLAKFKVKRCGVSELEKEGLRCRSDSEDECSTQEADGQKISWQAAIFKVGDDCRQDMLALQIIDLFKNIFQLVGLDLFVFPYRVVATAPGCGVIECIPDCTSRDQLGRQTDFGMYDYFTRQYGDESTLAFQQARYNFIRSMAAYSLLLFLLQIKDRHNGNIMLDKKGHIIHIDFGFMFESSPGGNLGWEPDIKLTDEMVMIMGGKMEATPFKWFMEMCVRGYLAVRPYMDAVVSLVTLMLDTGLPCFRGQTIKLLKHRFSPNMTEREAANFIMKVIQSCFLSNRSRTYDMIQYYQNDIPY
Serine/threonine-protein kinase N1 (Homo sapiens), sequence (Q16512 2-942 limits assumed): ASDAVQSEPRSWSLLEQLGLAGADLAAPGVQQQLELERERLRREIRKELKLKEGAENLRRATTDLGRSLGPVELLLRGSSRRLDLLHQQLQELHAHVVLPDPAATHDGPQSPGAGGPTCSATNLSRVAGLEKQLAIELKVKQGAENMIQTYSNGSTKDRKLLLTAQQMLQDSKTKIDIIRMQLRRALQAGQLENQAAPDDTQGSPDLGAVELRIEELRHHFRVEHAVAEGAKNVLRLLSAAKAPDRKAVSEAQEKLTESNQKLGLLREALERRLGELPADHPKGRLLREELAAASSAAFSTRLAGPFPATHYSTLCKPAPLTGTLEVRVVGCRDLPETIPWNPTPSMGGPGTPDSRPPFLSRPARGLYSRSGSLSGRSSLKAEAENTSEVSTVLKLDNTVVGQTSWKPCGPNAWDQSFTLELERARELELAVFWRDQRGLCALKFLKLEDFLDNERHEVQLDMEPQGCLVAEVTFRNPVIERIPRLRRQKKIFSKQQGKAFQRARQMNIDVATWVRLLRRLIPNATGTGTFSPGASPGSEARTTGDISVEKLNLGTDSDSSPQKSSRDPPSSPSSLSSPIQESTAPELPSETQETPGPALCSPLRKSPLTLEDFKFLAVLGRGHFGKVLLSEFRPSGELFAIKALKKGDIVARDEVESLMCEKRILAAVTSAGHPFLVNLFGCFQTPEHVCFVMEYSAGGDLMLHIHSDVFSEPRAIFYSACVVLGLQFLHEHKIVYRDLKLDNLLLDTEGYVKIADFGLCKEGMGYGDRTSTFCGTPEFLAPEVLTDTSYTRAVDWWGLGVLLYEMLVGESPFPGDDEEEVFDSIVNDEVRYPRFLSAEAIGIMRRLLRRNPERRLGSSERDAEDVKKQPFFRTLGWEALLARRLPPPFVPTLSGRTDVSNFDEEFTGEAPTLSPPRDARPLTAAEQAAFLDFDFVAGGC
Serine/threonine-protein kinase 38 (Homo sapiens), sequence (Q15208 2-465 limits assumed): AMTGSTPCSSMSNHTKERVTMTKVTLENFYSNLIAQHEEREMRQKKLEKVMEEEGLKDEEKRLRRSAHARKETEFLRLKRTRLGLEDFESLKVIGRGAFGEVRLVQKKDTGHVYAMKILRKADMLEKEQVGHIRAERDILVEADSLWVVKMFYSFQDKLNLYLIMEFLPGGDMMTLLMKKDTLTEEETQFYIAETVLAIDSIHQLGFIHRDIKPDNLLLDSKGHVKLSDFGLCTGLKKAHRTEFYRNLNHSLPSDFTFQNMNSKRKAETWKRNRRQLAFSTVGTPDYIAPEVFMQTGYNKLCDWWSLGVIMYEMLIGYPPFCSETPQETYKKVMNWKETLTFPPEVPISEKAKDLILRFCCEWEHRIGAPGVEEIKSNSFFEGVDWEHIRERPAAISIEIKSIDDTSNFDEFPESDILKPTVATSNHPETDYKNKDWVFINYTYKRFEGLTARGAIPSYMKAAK
Serine/threonine-protein kinase PLK1 (Homo sapiens), sequence (P53350 whole entry): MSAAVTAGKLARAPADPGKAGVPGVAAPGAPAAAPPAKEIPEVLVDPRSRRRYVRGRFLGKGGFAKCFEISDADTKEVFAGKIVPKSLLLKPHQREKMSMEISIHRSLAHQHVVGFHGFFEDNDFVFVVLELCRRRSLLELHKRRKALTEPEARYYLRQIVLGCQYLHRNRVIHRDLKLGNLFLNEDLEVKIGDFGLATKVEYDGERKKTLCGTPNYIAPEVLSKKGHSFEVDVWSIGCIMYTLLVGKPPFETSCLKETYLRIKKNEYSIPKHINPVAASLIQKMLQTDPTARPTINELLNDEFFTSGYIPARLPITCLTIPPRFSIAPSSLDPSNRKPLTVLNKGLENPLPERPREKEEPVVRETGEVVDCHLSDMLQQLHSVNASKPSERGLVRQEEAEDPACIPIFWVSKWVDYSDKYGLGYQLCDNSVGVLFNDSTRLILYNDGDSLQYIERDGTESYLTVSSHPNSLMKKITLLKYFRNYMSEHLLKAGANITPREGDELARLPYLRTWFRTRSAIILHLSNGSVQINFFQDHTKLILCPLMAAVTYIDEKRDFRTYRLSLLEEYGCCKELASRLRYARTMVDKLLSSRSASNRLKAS

Compound: CCN1CCN(Cc2ccc(NC(=O)c3ccc(C)c(Oc4ccnc5[nH]ccc45)c3)cc2C(F)(F)F)CC1
- inhibition [1]: -7.6%
- inhibition [2]: 4.4%
- inhibition [3]: inactive
- inhibition [4]: -0.3%
- inhibition [5]: 8.7%
- inhibition [6]: 72.6%
- inhibition [7]: 79%
- inhibition [8]: 10.8%
- inhibition [9]: inactive

Compound: CNc1cc(Oc2cc(C(=O)Nc3cc(N4CCN(C)CC4)cc(C(F)(F)F)c3)ccc2C)ncn1
- inhibition [10]: 2%
- inhibition [11]: -8.3%

Compound: CCN1CCN(Cc2ccc(NC(=O)c3ccc(C)c(/C=C/c4cnc5[nH]ccc5c4OC)c3)cc2C(F)(F)F)CC1
- inhibition [12]: 9%
- inhibition [13]: 61%
- inhibition [14]: -4.2%
